Structures can show the parent of a compound that is named as a salt. Where two headings read alike, the source gives them in different places.
Columns and labels:
[1] = Genotoxicity profile; data extracted from Kirkland et al. 2008; cited from earlier work
[2] = cited from earlier work
[3] = tested on: Bscl2-GFP and Srxn1-GFP mES reporter cells
[4] = tested on: Salmonella; conditions: cited from earlier work
[5] = tested on: mouse ES cell lines containing a DsRed fluorescent reporter; conditions: cited from earlier work
[6] = tested on: Srxn1-GFP mES reporter cells; test: Srxn1-GFP oxidative stress reporter
[7] = Genotoxicity profile, data extracted from Kirkland et al. 2008
[8] = from which GFP reporter is induced

Oc1cccc(O)c1 [1,3-Dihydroxybenzene (Resorcinol), 1,3-Dihydroxybenzene]
In vitro genotoxicity [1]: Pos. | In vivo genotoxicity [2, 7]: Neg. | Bscl2-GFP/Srxn1-GFP Prim. toxic properties [3]: Equivocal | Ames test [4, 7]: Neg.

Oc1ccc(Cl)cc1Cl [2,4-dichlorophenol]
mES DsRed reporters ([5]; Hendriks et al. 2011): Pos. | In vivo genotoxicity ([2]; in vivo): Weak Pos. | Bscl2-GFP/Srxn1-GFP GFP Induction [3]: Pos. (key: Pos.: considered positive when exposure to at least two different concentrations of a compound resulted in >1.5 fold induction of GFP expression) | Bscl2-GFP/Srxn1-GFP Prim. toxic properties [3]: Pro-oxidant | Ames test [4]: Neg.

CCCCCC(O)C=CC=O (centres unmarked) [4-Hydroxy-2-nonenal]
In vitro genotoxicity [1]: Pos. | In vivo genotoxicity [2, 7]: Neg. | Bscl2-GFP/Srxn1-GFP Prim. toxic properties [3]: Pro-oxidant | Ames test [4, 7]: Neg.

O=[N+]([O-])c1cc[n+]([O-])c2ccccc12 [4-Nitroquinelone-1-oxide]
In vitro genotoxicity [1]: Pos. | In vivo genotoxicity [2, 7]: Pos. | Bscl2-GFP/Srxn1-GFP GFP Induction [3]: Pos. (considered positive when exposure to at least two different concentrations of a compound resulted in >1.5 fold induction of GFP expression) | Bscl2-GFP/Srxn1-GFP Prim. toxic properties [3, 8]: Genotoxin

C[N+](C)(C)CCCl.[Cl-] [(2-chloroethyl)trimethyl-ammonium chloride]
mES DsRed reporters [5]: Neg. | Bscl2-GFP/Srxn1-GFP GFP Induction [3]: Neg. | Ames test [4]: Neg.

Nc1nc[nH]n1 [Amitrole]
In vitro genotoxicity [1]: Neg. | mES DsRed reporters ([5]; Hendriks et al. 2011): Neg. | In vivo genotoxicity [2, 7]: Neg. | Bscl2-GFP/Srxn1-GFP GFP Induction [3]: Neg. | Ames test [4, 7]: Neg.

OCc1ccccc1 [Benzyl alcohol]
In vitro genotoxicity [1]: Weak Pos. | mES DsRed reporters ([5]; Hendriks et al. 2011): Neg. | Bscl2-GFP/Srxn1-GFP GFP Induction [3]: Neg. | Ames test [4, 7]: Neg.

CC[C@@]1(O)C(=O)OCc2c1cc1n(c2=O)Cc2cc3ccccc3nc2-1 [Camptothecin]
In vitro genotoxicity [1]: Pos. | In vivo genotoxicity [2, 7]: Neg. | Bscl2-GFP/Srxn1-GFP GFP Induction [3]: Pos. (considered positive when exposure to at least two different concentrations of a compound resulted in >1.5 fold induction of GFP expression) | Bscl2-GFP/Srxn1-GFP Prim. toxic properties [3, 8]: Genotoxin | Ames test [4, 7]: Neg.

COc1cc(/C=C/C(=O)CC(=O)/C=C/c2ccc(O)c(OC)c2)ccc1O [Curcumln]
In vitro genotoxicity [1]: Pos. | mES DsRed reporters ([5]; Hendriks et al. 2011): Neg. | Bscl2-GFP/Srxn1-GFP GFP Induction [3]: Neg. | Ames test [4, 7]: Neg.

O=C1CCCCC1 [Cyclohexanone]
In vitro genotoxicity [1]: Neg. | mES DsRed reporters ([5]; Hendriks et al. 2011): Neg. | Bscl2-GFP/Srxn1-GFP GFP Induction [3]: Neg. | Ames test [4, 7]: Neg.

Nc1ccn([C@@H]2O[C@H](CO)[C@@H](O)[C@@H]2O)c(=O)n1 [Cytarabine]
Bscl2-GFP/Srxn1-GFP Prim. toxic properties [3]: Genotoxin | Ames test [4]: Neg.

C=C(C)[C@H]1CC=C(C)CC1 [D-limonene]
mES DsRed reporters ([5]; Hendriks et al. 2011): Neg. | Bscl2-GFP/Srxn1-GFP GFP Induction [3]: Neg.

OCCNCCO [Diethanolamine]
In vitro genotoxicity [1]: Neg. | mES DsRed reporters ([5]; Hendriks et al. 2011): Neg. | In vivo genotoxicity [2, 7]: Neg. | Bscl2-GFP/Srxn1-GFP GFP Induction [3]: Neg. | Ames test [4, 7]: Neg.

CC[C@H]1OC(=O)[C@H](C)[C@@H](O[C@H]2C[C@@](C)(OC)[C@@H](O)[C@H](C)O2)[C@H](C)[C@@H](O[C@@H]2O[C@H](C)C[C@H](N(C)C)[C@H]2O)[C@](C)(O)C[C@@H](C)C(=O)[C@H](C)[C@@H](O)[C@]1(C)O [Erythromycin stearate]
Bscl2-GFP/Srxn1-GFP GFP Induction [3]: Neg. | Ames test [4, 7]: Neg.

CCc1cc(C(N)=S)ccn1 [Ethionamide]
In vitro genotoxicity [1]: Weak Pos. | mES DsRed reporters ([5]; Hendriks et al. 2011): Neg. | Bscl2-GFP/Srxn1-GFP GFP Induction [3]: Neg. | Ames test [4, 7]: Neg.

C=CC(=O)OCC [Ethyl acrylate]
mES DsRed reporters ([5]; Hendriks et al. 2011): Neg. | In vivo genotoxicity ([2]; in vivo): Weak Pos. | Bscl2-GFP/Srxn1-GFP GFP Induction [3]: Neg. | Ames test [4]: Neg.

C=CCc1ccc(O)c(OC)c1 [Eugenol]
mES DsRed reporters [5]: Neg. | In vivo genotoxicity ([2]; in vivo): Equivocal | Bscl2-GFP/Srxn1-GFP GFP Induction [3]: Neg. | Ames test [4, 7]: Neg.

CN1CC[C@H](c2c(O)cc(O)c3c(=O)cc(-c4ccccc4Cl)oc23)[C@H](O)C1 [Flavopiridol]
Bscl2-GFP/Srxn1-GFP GFP Induction [3]: Neg.

CN(C)C(=O)Nc1cccc(C(F)(F)F)c1 [Fluometron]
In vitro genotoxicity [1]: Neg. | mES DsRed reporters ([5]; Hendriks et al. 2011): Neg. | Bscl2-GFP/Srxn1-GFP GFP Induction [3]: Neg. | Ames test [4, 7]: Neg.

ClC(Cl)(Cl)C(Cl)(Cl)Cl [Hexachloroethane]
In vitro genotoxicity [1]: Neg. | mES DsRed reporters ([5]; Hendriks et al. 2011): Neg. | In vivo genotoxicity [2, 7]: Neg. | Bscl2-GFP/Srxn1-GFP GFP Induction [3]: Neg. | Ames test [4, 7]: Neg.

OO [Hydrogen peroxide]
In vitro genotoxicity [1]: Pos. | mES DsRed reporters ([5]; Hendriks et al. 2011): Neg. | In vivo genotoxicity [2, 7]: Neg. | Bscl2-GFP/Srxn1-GFP Prim. toxic properties [3]: Pro-oxidant | Ames test [4, 7]: Pos.

CC(C)C=O [Isobutyraldehyde]
mES DsRed reporters [5]: Neg. | Bscl2-GFP/Srxn1-GFP GFP Induction [3]: Neg.

COC(N)=O [Methyl carbamate]
In vitro genotoxicity [1]: Neg. | In vivo genotoxicity [2, 7]: Neg.

NC(=S)N(C1CCCCC1)C1CCCCC1 [N,N-dicyclohexyl thiourea]
In vitro genotoxicity [1]: Neg. | mES DsRed reporters ([5]; Hendriks et al. 2011): Neg. | Bscl2-GFP/Srxn1-GFP GFP Induction [3]: Neg. | Ames test [4, 7]: Neg.

CC(=O)N[C@@H](CS)C(=O)O [NAC, N-acetyl cysteine]
effect on Srxn1-GFP reporter activation by pro-oxidants ([6]; co-incubation with DEM, CuSO4, NaAsO2, CdCl2 or MMS, 24 h): completely inhibited activation of the reporter | effect on Srxn1-GFP reporter activation by CisPt ([6]; data not shown): significantly reduced reporter activation | effect of scavenger alone on cell viability and reporter activity ([3]; data not shown): did not affect cell viability or reporter activity

[H]/N=C(/N)N/C(=N/[H])NCCc1ccccc1 [Phenformin HCl]
mES DsRed reporters ([5]; Hendriks et al. 2011): Neg. | Bscl2-GFP/Srxn1-GFP GFP Induction [3]: Neg.

CCCOC(=O)c1cc(O)c(O)c(O)c1 [Propyl gallate]
In vitro genotoxicity [1]: Pos. | mES DsRed reporters ([5]; Hendriks et al. 2011): Pos. | In vivo genotoxicity [2, 7]: Equivocal | Bscl2-GFP/Srxn1-GFP Prim. toxic properties [3]: Equivocal | Ames test [4, 7]: Neg.

c1ccncc1 [Pyrldlne]
In vitro genotoxicity [1]: Neg. | mES DsRed reporters ([5]; Hendriks et al. 2011): Neg. | In vivo genotoxicity [2, 7]: Neg. | Bscl2-GFP/Srxn1-GFP GFP Induction [3]: Neg. | Ames test [4, 7]: Neg.

O=C1NS(=O)(=O)c2ccccc21.[Na] [Sodium saccharin]
mES DsRed reporters [5]: Neg. | In vivo genotoxicity ([2]; in vivo): Neg. | Bscl2-GFP/Srxn1-GFP GFP Induction [3]: Neg. | Ames test [4]: Neg.

Cc1noc(NS(=O)(=O)c2ccc(N)cc2)c1C [Sulfisoxazole]
mES DsRed reporters ([5]; Hendriks et al. 2011): Neg. | Bscl2-GFP/Srxn1-GFP GFP Induction [3]: Pos. (key: Pos.: considered positive when exposure to at least two different concentrations of a compound resulted in >1.5 fold induction of GFP expression) | Bscl2-GFP/Srxn1-GFP Prim. toxic properties [3]: Pro-oxidant | Ames test [4, 7]: Neg.

CC(=O)O[C@H]1C(=O)[C@@]2(C)[C@H]([C@H](OC(=O)c3ccccc3)[C@]3(O)C[C@H](OC(=O)[C@H](O)[C@@H](NC(=O)c4ccccc4)c4ccccc4)C(C)=C1C3(C)C)[C@]1(OC(C)=O)CO[C@@H]1C[C@@H]2O [Taxol]
In vitro genotoxicity [1]: Pos. | In vivo genotoxicity [2, 7]: Pos. | Bscl2-GFP/Srxn1-GFP Prim. toxic properties [3]: Genotoxin | Ames test [4, 7]: Neg.

CC(C)(C)OO [Tert-butyl hydroperoxide]
mES DsRed reporters [5]: Neg. | Bscl2-GFP/Srxn1-GFP GFP Induction [3]: Pos. (key: Pos.: considered positive when exposure to at least two different concentrations of a compound resulted in >1.5 fold induction of GFP expression)

CC(C)(C)c1cc(O)ccc1O [Tert-butylhydroquinone]
In vitro genotoxicity [1]: Pos. | mES DsRed reporters ([5]; Hendriks et al. 2011): Pos. | In vivo genotoxicity [2, 7]: Neg. | Bscl2-GFP/Srxn1-GFP Prim. toxic properties [3]: Pro-oxidant | Ames test [4, 7]: Neg.

CCCCC(CC)COP(=O)(OCC(CC)CCCC)OCC(CC)CCCC (centres unmarked) [Tris(2-ethylhexyl)phosphate]
In vitro genotoxicity [1]: Neg. | mES DsRed reporters ([5]; Hendriks et al. 2011): Neg. | In vivo genotoxicity [2, 7]: Neg. | Bscl2-GFP/Srxn1-GFP GFP Induction [3]: Neg. | Ames test [4, 7]: Neg.

NC(N)=O [Urea]
In vitro genotoxicity [1]: Pos. | mES DsRed reporters ([5]; Hendriks et al. 2011): Neg. | Bscl2-GFP/Srxn1-GFP GFP Induction [3]: Neg. | Ames test [4, 7]: Neg.

Nc1ccccc1C(=O)O [o-anthranilic acid]
In vitro genotoxicity [1]: Pos. | mES DsRed reporters ([5]; Hendriks et al. 2011): Pos. | In vivo genotoxicity [2, 7]: Neg. | Bscl2-GFP/Srxn1-GFP GFP Induction [3]: Neg. | Ames test [4, 7]: Neg.

O=[N+]([O-])c1ccc(O)cc1 [p-Nitrophenol]
mES DsRed reporters [5]: Neg. | Bscl2-GFP/Srxn1-GFP GFP Induction [3]: Pos. (key: Pos.: considered positive when exposure to at least two different concentrations of a compound resulted in >1.5 fold induction of GFP expression) | Bscl2-GFP/Srxn1-GFP Prim. toxic properties [3]: Pro-oxidant

Nc1ccc(Cl)cc1 [p-chloroaniline]
mES DsRed reporters [5]: Neg. | In vivo genotoxicity ([2]; in vivo): Pos. | Bscl2-GFP/Srxn1-GFP GFP Induction [3]: Neg. | Ames test [4]: Pos.

Bleomycin
In vitro genotoxicity [1]: Pos. | In vivo genotoxicity [2, 7]: Pos. | Bscl2-GFP/Srxn1-GFP GFP Induction [3]: Pos. (considered positive when exposure to at least two different concentrations of a compound resulted in >1.5 fold induction of GFP expression) | Bscl2-GFP/Srxn1-GFP Prim. toxic properties [3, 8]: Genotoxin | Ames test [4, 7]: Pos.

n-butyl chloride
mES DsRed reporters [5]: Neg.

Reference: US9695481B2, “Polynucleotides comprising a reporter sequence operatively linked to a regulatory element” (UNIVERSITEIT LEIDEN, priority 2010, dated 2017)
